Where a name gives a salt, the structure may show the parent alone. Read-outs that look alike come from different tables or passages of the source.
What was measured:
human orexin 1 receptor = human orexin 1 receptor (Homo sapiens, UniProt O43613); test: Human orexin 1 receptor radioligand binding; settings: CHO cells stably expressing human orexin 1 receptor; apparent Ki; read-out: hOX1 Ki
Method: The in vitro affinity of the compounds of the invention for the rat/human orexin 1 and human orexin 2 receptors was determined by competitive radioligand binding using [^3H](1-(5-(2-fluoro-phenyl)-2-methyl-thiazol-4-yl)-1-((S)-2-(5-phenyl-(1,3,4)oxadiazol-2-ylmethyl)-pyrrolidin-1-yl)-methanone)(Langmead et al., 2004) and [^3H]EMPA (n-ethyl-2[96-methoxy-pyridin-3-yl)-(toluene-2-sulfonyl)-amino]-N-pyridin-3-ylmethyl acetamide), respectively (Langmead et al., 2004, British Journal of Pharmacology 141:340-346; Malherbe et al., 2004, British Journal of Pharmacology 156:1326-41).
Human Embryonic Kidney 293 cells (HEK293) stably expressing rat orexin 1 receptor (Genebank accession number NM_001525) or Chinese ovary cells (CHO) stably expressing human orexin 1 receptor (Genebank accession number NM_001526) were grown to confluency in DMEM (Hyclone, cat #SH30022), 10% FBS, 1× Pen/Strep, 1× sodium pyruvate, 10 mM HEPES, 600 µg/mL G418 and DMEM/F12 (Gibco, Cat #11039), 10% FBS, 1× Pen/Strep, 600 µg/mL G418 media, respectively on 150 cm^2 tissue culture plates, washed with 5 mM EDTA in PBS (HyClone Dulbecco's Phoshpate Buffered Saline 1× with Calcium and Magnesium, Cat #SH30264.01, hereafter referred to simply as PBS) and scraped into 50 ml tubes. After centrifugation (2K×G, 5 min at 4° C.), the supernatant was aspirated and the pellets frozen and stored at −80° C. Cells were resuspended in PBS in the presence of 1 tablet of protease inhibitor cocktail (Roche, Cat. #11836145001) per 50 mL. Each cell pellet from a 15 cm plate was resuspended in 10 mL, stored on ice, and homogenized for 45 sec prior to addition to the reactions. Competition binding experiments in 96 well polypropylene plates were performed using [^3H]-(1-(5-(2-fluoro-phenyl)-2-methyl-thiazol-4-yl)-1-((S)-2-(5-phenyl-(1,3,4)oxadiazol-2-ylmethyl)-pyrrolidin-1-yl)-methanone) (Moraveck Corporation, specific activity=35.3 Ci/mmol), diluted to a 10 nM concentration in PBS (4 nM final). […] The final concentration of DMSO in the reactions is equal to or less than 0.1%. Total and nonspecific binding was determined in the absence and presence of 10 μM almorexant. The total volume of each reaction is 200 μL (20 μL of diluted compounds, 80 μL of [3H]-(1-(5-(2-fluoro-phenyl)-2-methyl-thiazol-4-yl)-1-((S)-2-(5-phenyl-(1,3,4)oxadiazol-2-ylmethyl)-pyrrolidin-1-yl)-methanone) diluted in PBS and 100 μL of the cell suspension). Reactions were run for 60 min at room temperature and terminated by filtration through GF/C filter plates (PerkinElmer, Cat. #6005174) presoaked in 0.3% polyethylenimine using the cell harvester (PerkinElmer Filtermate). The plates were washed 3 times by aspirating 30 ml PBS through the plates. Plates were dried in 55° C. oven for 60 min, scintillation fluid was added, and the radioactivity was counted on a Topcount (Packard).

rat orexin 1 receptor = rat orexin 1 receptor (Rattus norvegicus, UniProt P56718); test: Rat orexin 1 receptor radioligand binding; settings: HEK293 cells stably expressing rat orexin 1 receptor; apparent Ki; read-out: rOX1 Ki
Procedure, shortened: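 Homogenized cell suspensions competed against 4 nM final of a tritiated oxadiazolyl-pyrrolidinyl thiazole methanone radioligand (35.3 Ci/mmol) in PBS, with DMSO ≤0.1%. Nonspecific binding defined with 10 μM almorexant; after washing and drying, bound radioactivity counted by scintillation.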

human orexin 2 receptor = human orexin 2 receptor (Homo sapiens (Human), UniProt O43614); test: Human orexin 2 receptor radioligand binding ([3H]-EMPA)
Procedure, shortened: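 Competition binding with 2 nM final [3H]-EMPA in PBS against homogenized whole-cell suspension; DMSO ≤0.1%. Nonspecific binding defined with […] almorexant. Plates washed with PBS, dried, and bound radioactivity counted by scintillation.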

[1] = HEK293 stably expressing human orexin 2 receptor, [3H]-EMPA, apparent Ki, read-out: hOX2 Ki

Chain of human orexin 2 receptor (O43614 whole entry): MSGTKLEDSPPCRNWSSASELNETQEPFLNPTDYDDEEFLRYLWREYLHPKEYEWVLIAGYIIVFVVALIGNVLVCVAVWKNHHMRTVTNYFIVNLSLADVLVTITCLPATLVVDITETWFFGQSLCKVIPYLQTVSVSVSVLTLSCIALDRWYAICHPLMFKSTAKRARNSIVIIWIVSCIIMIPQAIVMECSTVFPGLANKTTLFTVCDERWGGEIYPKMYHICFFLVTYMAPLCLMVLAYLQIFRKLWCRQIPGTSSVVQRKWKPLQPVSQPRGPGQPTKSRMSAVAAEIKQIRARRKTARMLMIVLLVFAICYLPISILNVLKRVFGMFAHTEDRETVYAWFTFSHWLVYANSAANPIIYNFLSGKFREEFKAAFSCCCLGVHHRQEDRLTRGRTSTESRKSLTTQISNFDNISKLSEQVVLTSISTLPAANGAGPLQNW

Compound	Ki (human orexin 1 receptor) [µM]	Ki (rat orexin 1 receptor) [µM]	Ki (human orexin 2 receptor; [1]) [µM]	Ki (human orexin 2 receptor) [µM]
Cc1ccc(C(=O)N2CCC[C@@H](Nc3cnc(C(F)(F)F)cn3)[C@@H]2C)c(-n2nccn2)n1 [Example 74, (6-methyl-2-(2H-1,2,3-triazol-2-yl)pyridin-3-yl)((2S,3R)-2-methyl-3-((5-(trifluoromethyl)pyrazin-2-yl)amino)piperidin-1-yl)methanone]	0.052	0.04	–	> 10
Cc1ccc(C(=O)N2CCC[C@@H](Nc3ncc(C(F)(F)F)cn3)[C@@H]2C)c(-n2ccnn2)n1 [Example 70, (6-methyl-2-(1H-1,2,3-triazol-1-yl)pyridin-3-yl)((2S,3R)-2-methyl-3-((5-(trifluoromethyl)pyrimidin-2-yl)amino)piperidin-1-yl)methanone]	0.165	0.17	7.5	–
Cc1ccc(C(=O)N2CCC[C@@H](Nc3nc4ccccc4o3)[C@@H]2C)c(-n2nccn2)n1 [Example 75, ((2S,3R)-3-(benzo[d]oxazol-2-ylamino)-2-methylpiperidin-1-yl)(6-methyl-2-(2H-1,2,3-triazol-2-yl)pyridin-3-yl)methanone]	0.04	0.023	9.5	–
C[C@H]1[C@H](Nc2nc3cc(Cl)ccc3o2)CCCN1C(=O)c1ccccc1-n1nccn1 (racemic) [Example 45, (±)-trans-(2-(2H-1,2,3-triazol-2-yl)phenyl)(3-((5-chlorobenzo[d]oxazol-2-yl)amino)-2-methylpiperidin-1-yl)methanone]	0.026	0.028	0.281	–
Cc1ccc(-n2nccn2)c(C(=O)N2CCC[C@@H](Oc3ncc(C(F)(F)F)cn3)[C@@H]2C)n1 [Example 104, ((2S,3R)-2-methyl-3-((5-(trifluoromethyl)pyrimidin-2-yl)oxy)piperidin-1-yl)(6-methyl-3-(2H-1,2,3-triazol-2-yl)pyridin-2-yl)methanone]	0.173	0.119	> 10	–
C[C@H]1[C@H](Oc2ncc(C(F)(F)F)cn2)CCCN1C(=O)c1ccccc1-n1nccn1 [Example 103, (2-(2H-1,2,3-triazol-2-yl)phenyl)((2S,3R)-2-methyl-3-((5-(trifluoromethyl)pyrimidin-2-yl)oxy)piperidin-1-yl)methanone]	0.097	0.044	2.3	–
Cc1ccc(C(=O)N2CCC[C@@H](Nc3ncc(C(F)(F)F)cn3)[C@@H]2C)c(-n2nccn2)n1 [Example 69, (6-methyl-2-(2H-1,2,3-triazol-2-yl)pyridin-3-yl)((2S,3R)-2-methyl-3-((5-(trifluoromethyl)pyrimidin-2-yl)amino)piperidin-1-yl)methanone]	0.112	0.07	> 10	–
COc1ccc(C(=O)N2CCC[C@@H](Nc3cnc(C(F)(F)F)cn3)[C@@H]2C)c(-n2nccn2)c1 [Example 82, (4-methoxy-2-(2H-1,2,3-triazol-2-yl)phenyl)((2S,3R)-2-methyl-3-((5-(trifluoromethyl)pyrazin-2-yl)amino)piperidin-1-yl)methanone]	0.058	0.053	6.4	–
Cc1ccc(-c2ncco2)c(C(=O)N2CCC[C@@H](Nc3ccc(C(F)(F)F)cn3)[C@@H]2C)n1 (racemic) [Example 22, (±)-trans-(2-methyl-3-((5-(trifluoromethyl)pyridin-2-yl)amino)piperidin-1-yl)(6-methyl-3-(oxazol-2-yl)pyridin-2-yl)methanone hydrochloride]	0.019	0.033	0.422	–
Cc1ccc(-c2ncccn2)c(C(=O)N2CCC[C@@H](Nc3cnc(C(F)(F)F)cn3)[C@@H]2C)n1 [Example 84, ((2S,3R)-2-methyl-3-((5-(trifluoromethyl)pyrazin-2-yl)amino)piperidin-1-yl)(6-methyl-3-(pyrimidin-2-yl)pyridin-2-yl)methanone]	0.028	0.023	0.173	–

Continued by falling Ki (human orexin 1 receptor), values first:

Ki (human orexin 1 receptor) [µM]	Ki (rat orexin 1 receptor) [µM]	Ki (human orexin 2 receptor; [1]) [µM]	Compound	Ki (human orexin 2 receptor) [µM]
0.025	0.028	5.2	Cc1ccc(C(=O)N2CCC[C@@H](Oc3ncc(C(F)(F)F)cn3)[C@@H]2C)c(-n2nccn2)c1 [Example 102, (4-methyl-2-(2H-1,2,3-triazol-2-yl)phenyl)((2S,3R)-2-methyl-3-((5-(trifluoromethyl)pyrimidin-2-yl)oxy)piperidin-1-yl)methanone]	–
0.025	0.018	0.529	C[C@H]1[C@H](Nc2cnc(C(F)(F)F)cn2)CCCN1C(=O)c1ccccc1-n1nccn1 (racemic) [Example 38, (±)-trans-(2-(2H-1,2,3-triazol-2-yl)phenyl)(2-methyl-3-((5-(trifluoromethyl)pyrazin-2-yl)amino)piperidin-1-yl)methanone]	–
0.025	0.038	> 10	Cc1cnc(C(=O)N2CCC[C@@H](Nc3ncc(C(F)(F)F)cn3)[C@@H]2C)c(-n2nccn2)c1 [Example 94, ((2S,3R)-2-methyl-3-((5-(trifluoromethyl)pyrimidin-2-yl)amino)piperidin-1-yl)(5-methyl-3-(2H-1,2,3-triazol-2-yl)pyridin-2-yl)methanone]	–
0.018	0.019	4.2	Cc1cnc(C(=O)N2CCC[C@@H](Nc3ccc(Br)cn3)[C@@H]2C)c(-n2nccn2)c1 [Example 92, ((2S,3R)-3-((5-bromopyridin-2-yl)amino)-2-methylpiperidin-1-yl)(5-methyl-3-(2H-1,2,3-triazol-2-yl)pyridin-2-yl)methanone]	–
0.015	0.023	1.4	Cc1ccc(C(=O)N2CCC[C@@H](Nc3ccc(Cl)cn3)[C@@H]2C)c(-n2nccn2)c1 [Example 99, ((2S,3R)-3-((5-chloropyridin-2-yl)amino)-2-methylpiperidin-1-yl)(4-methyl-2-(2H-1,2,3-triazol-2-yl)phenyl)methanone]	–
0.014	0.011	2.04	Cc1cnc(C(=O)N2CCC[C@@H](Nc3ccc(C(F)(F)F)cn3)[C@@H]2C)c(-n2nccn2)c1 [Example 26, ((2S,3R)-2-methyl-3-((5-(trifluoromethyl)pyridin-2-yl)amino)piperidin-1-yl)(5-methyl-3-(2H-1,2,3-triazol-2-yl)pyridin-2-yl)methanone]	–
0.012	0.026	> 10	Cc1ccc(C(=O)N2CCC[C@@H](Nc3ccc(C(F)(F)F)cn3)[C@@H]2C)c(-n2nccn2)n1 [Example 98, (6-methyl-2-(2H-1,2,3-triazol-2-yl)pyridin-3-yl)((2S,3R)-2-methyl-3-((5-(trifluoromethyl)pyridin-2-yl)amino)piperidin-1-yl)methanone]	–
0.01	0.014	0.371	COc1ccc(-n2nccn2)c(C(=O)N2CCC[C@@H](Nc3ncc(C(F)(F)F)cn3)[C@@H]2C)c1 [Example 89, (5-methoxy-2-(2H-1,2,3-triazol-2-yl)phenyl)((2S,3R)-2-methyl-3-((5-(trifluoromethyl)pyrimidin-2-yl)amino)piperidin-1-yl)methanone]	–
0.007	0.008	1.3	Cc1ccc(C(=O)N2CCC[C@@H](Nc3cnc(C(F)(F)F)cn3)[C@@H]2C)c(-n2nccn2)c1 [Example 79, (4-methyl-2-(2H-1,2,3-triazol-2-yl)phenyl)((2S,3R)-2-methyl-3-((5-(trifluoromethyl)pyrazin-2-yl)amino)piperidin-1-yl)methanone]	–

Reference: US9115117B2, “Substituted piperidine compounds and their use as orexin receptor modulators” (JANSSEN PHARMACEUTICA NV, priority 2013, dated 2015)
